Assay results published in ChEMBL document CHEMBL1201862, “PubChem BioAssay data set” (2004).
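Following 48 hours of exposure in 96-well plates, responses at five concentrations were used to interpolate endpoints linearly. GI50: concentration for 50% inhibition of growth.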 The source made the active and inactive calls. No stated cut-off is given here; in the data, active = GI50 up to about 1.1 µM and inactive = higher.

Key:
Test in all cases: NCI anticancer screen, dose series, 48 h
NCI/ADR-RES = tested on: NCI/ADR-RES
MDA-N = tested on: MDA-N
MCF7 = tested on: MCF7
Malme-3M = tested on: Malme-3M
NCI-H226 = tested on: NCI-H226
T47D = tested on: T47D
UACC-257 = tested on: UACC-257
HOP-62 = tested on: HOP-62
SF-268 = tested on: SF-268
SNB-19 = tested on: SNB-19
HOP-92 = tested on: HOP-92
MDA-MB-435 = tested on: MDA-MB-435
SK-MEL-5 = tested on: SK-MEL-5
ACHN = tested on: ACHN
SN12C = tested on: SN12C
A498 = tested on: A498
LXFL 529 = tested on: LXFL 529
KM-20L2 = tested on: KM-20L2
M19-MEL = tested on: M19-MEL
BT-549 = tested on: BT-549

Measured: GI50

Cc1coc2c1C[C@@]1(C)[C@H](CCC[C@@H]1C)[C@H]2O
inactive: NCI/ADR-RES 24.3 µM | MDA-N 49.9 µM | MCF7 52.7 µM | Malme-3M 18.8 µM | NCI-H226 15.5 µM | T47D 19.9 µM | UACC-257 31.8 µM | HOP-62 29.4 µM | SF-268 16.9 µM | SNB-19 > 100 µM | HOP-92 25.9 µM | MDA-MB-435 30.1 µM | SK-MEL-5 15.1 µM | ACHN 24.7 µM | SN12C 15.6 µM

COc1ccc(/C=C/C(=O)C(C)(C)C)cc1OC
inactive: A498 > 100 µM | LXFL 529 43.6 µM | UACC-257 63.5 µM | HOP-62 > 100 µM | SF-268 78.2 µM | SNB-19 > 100 µM | KM-20L2 41.8 µM | SK-MEL-5 54.1 µM | ACHN > 100 µM | M19-MEL > 100 µM | SN12C 65.8 µM

CCCCCCNC(=O)C(C)C1CCC2(C)C=CC(=O)C(C)=C2C1O (stereo unspecified)
inactive: NCI/ADR-RES > 100 µM | A498 > 100 µM | MCF7 > 100 µM | NCI-H226 > 100 µM | UACC-257 > 94.8 µM | HOP-62 > 100 µM | SF-268 > 100 µM | SNB-19 > 100 µM | HOP-92 45.2 µM | KM-20L2 > 100 µM | SK-MEL-5 > 74.1 µM | SN12C > 100 µM

CC1CC(c2ccc([N+](=O)[O-])cc2)=Nc2ccccc2[S+]1[O-] (stereo unspecified)
inactive: A498 18.2 µM | NCI-H226 29.2 µM | UACC-257 20.2 µM | HOP-62 26.1 µM | SF-268 20.1 µM | SNB-19 18.2 µM | HOP-92 33.1 µM | KM-20L2 16.1 µM | SK-MEL-5 15.5 µM | ACHN 21.3 µM | M19-MEL 15.9 µM | SN12C 37.6 µM

Cc1c2ccccc2c(CO)c2cc(F)c3ccccc3c12
inactive: A498 38.2 µM | Malme-3M 53.8 µM | NCI-H226 42 µM | UACC-257 47.3 µM | HOP-62 31.5 µM | SF-268 24.5 µM | SNB-19 30 µM | HOP-92 32.4 µM | KM-20L2 21.1 µM | SK-MEL-5 43.9 µM | ACHN 19.5 µM | M19-MEL 35.8 µM | SN12C 17.3 µM

Cc1ccc(/N=N/C(C2=NC(=O)CS2)c2nc3ccccc3[nH]2)cc1 (stereo unspecified)
inactive: A498 > 100 µM | Malme-3M > 100 µM | NCI-H226 6.1 µM | LXFL 529 > 100 µM | UACC-257 > 100 µM | HOP-62 27.2 µM | SF-268 38.5 µM | SNB-19 > 100 µM | HOP-92 > 100 µM | KM-20L2 > 100 µM | SK-MEL-5 > 100 µM | ACHN > 100 µM | M19-MEL > 100 µM | SN12C > 100 µM

NC(=O)c1ncn2c1CNC(=O)C2
inactive: NCI/ADR-RES > 100 µM | A498 > 100 µM | MCF7 > 100 µM | Malme-3M > 100 µM | NCI-H226 > 100 µM | BT-549 > 100 µM | T47D > 100 µM | UACC-257 > 100 µM | HOP-62 > 100 µM | SF-268 > 100 µM | SNB-19 > 100 µM | HOP-92 > 100 µM | MDA-MB-435 > 100 µM | SK-MEL-5 > 100 µM | ACHN > 100 µM | SN12C > 100 µM

Nc1nc(Cl)cc(NCCCNc2cc(Cl)nc(N)n2)n1
inactive: A498 > 100 µM | Malme-3M > 100 µM | NCI-H226 > 100 µM | LXFL 529 > 100 µM | UACC-257 > 100 µM | HOP-62 > 100 µM | SF-268 > 100 µM | HOP-92 > 100 µM | KM-20L2 > 100 µM | SK-MEL-5 > 100 µM | M19-MEL > 100 µM | SN12C > 100 µM

Cc1cn(C2CC(n3cc(Cn4ccc(=O)[nH]c4=O)nn3)C(CO)O2)c(=O)[nH]c1=O (stereo unspecified)
inactive: NCI/ADR-RES > 100 µM | A498 > 100 µM | MDA-N > 100 µM | MCF7 > 100 µM | NCI-H226 > 100 µM | BT-549 > 100 µM | T47D > 100 µM | UACC-257 > 100 µM | HOP-62 > 100 µM | SF-268 > 100 µM | SNB-19 > 100 µM | HOP-92 > 100 µM | MDA-MB-435 > 100 µM | SK-MEL-5 > 100 µM | ACHN > 100 µM | SN12C > 100 µM

Cc1ccc2c(O)cc(-c3ccc(F)cc3)nc2n1
inactive: NCI/ADR-RES 25.7 µM | A498 25.1 µM | MDA-N 12.1 µM | MCF7 26.4 µM | Malme-3M 32.4 µM | NCI-H226 37.1 µM | BT-549 86.3 µM | T47D 41.9 µM | UACC-257 34.1 µM | HOP-62 48.8 µM | SF-268 52.7 µM | SNB-19 65.9 µM | HOP-92 19.7 µM | ACHN 42.6 µM | SN12C 52 µM
